Here are results for one compound from patent US20240182495A1, “ANTIBACTERIAL COMPOUNDS” (JANSSEN SCIENCES IRELAND UNLIMITED COMPANY, priority 2021, published 2024).

Data set [1] can be described thus: Hep t1/2 (hepatocyte stability), mouse. Conditions: hepatocytes.
Another data set concerns the target T1, 2C8 (Homo sapiens, UniProt P10632).
T1 sequence (P10632 1-490): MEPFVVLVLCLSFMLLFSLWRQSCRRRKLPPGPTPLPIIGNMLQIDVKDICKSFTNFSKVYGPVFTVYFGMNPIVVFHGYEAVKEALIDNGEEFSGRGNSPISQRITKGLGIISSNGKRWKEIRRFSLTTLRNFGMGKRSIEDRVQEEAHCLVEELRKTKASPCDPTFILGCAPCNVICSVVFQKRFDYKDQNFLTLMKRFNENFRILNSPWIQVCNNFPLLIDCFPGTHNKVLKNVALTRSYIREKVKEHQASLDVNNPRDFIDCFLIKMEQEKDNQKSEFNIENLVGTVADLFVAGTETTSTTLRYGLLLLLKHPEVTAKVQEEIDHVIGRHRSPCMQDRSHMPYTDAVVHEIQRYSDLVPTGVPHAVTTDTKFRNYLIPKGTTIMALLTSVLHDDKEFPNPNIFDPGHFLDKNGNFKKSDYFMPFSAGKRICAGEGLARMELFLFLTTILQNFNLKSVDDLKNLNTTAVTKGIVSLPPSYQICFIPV
Put plainly: CYP cocktail inhibition, 2C8. Format: in vitro ADME. Conditions: read-out: CYPS IC50 2C8. An excerpt:
(§1) The compounds of the invention/examples may have advantages associated with in vitro potency, kill kinetics (i.e. bactericidal effect) in vitro, PK properties, food effect, safety/toxicity (including liver toxicity, coagulation, 5-LO oxygenase), metabolic stability, Ames II negativity, MINT negativity, aqueous based solubility (and ability to formulate) and/or cardiovascular effect e.g. on animals (e.g. anesthetized guinea pig). Data that is generated/calculated may be obtained using standard methods/assays, for instance that are available in the literature or which may be performed by a supplier (e.g. Microsomal Stability Assay—Cyprotex, Mitochondrial toxicity (Glu/Gal) assay—Cyprotex, as well as literature CYP cocktail inhibition assays). GSH can be measured (reactive metabolites, […]) to observe if a dihydrodiol is observed by LCMS (fragmentation ions), which would correspond to a dihydroxylation on the core heterocycle.

A short description of data set [2]: Mitochondrial toxicity (Glu/Gal) assay. It counts as cell-based.
Text: as §1

The nature of data set [3]: physchem.
Data set [4] can be described thus: physchem. It counts as physicochemical.
Text: as §1

Data set [5] can be described thus: Chemical stability testing in DMSO, ACN/H2O, ACN/0.1N HCl, ACN/0.1N NaOH (% by LCMS). Format: physicochemical. Conditions: 48 h, 30 μM. Here is the method: Preliminary Protocol • Add 3 μl of a 10 mM DMSO stock solution to 1 ml of the following solvents in a 1.5 ml HPLC vial. • DMSO (reference solution) • H2O/Acetonitril 1/1 (assay solution) • 0.1N HCl/Acetonitril 1/1 (assay solution) • Mix well, […] LCMS • Compare the chromatograms of the two assay solutions with the reference solution and report the additional peaks as degradation peaks

For another data set, the system named is MDCK. The data set can be described thus: MDCK permeability / efflux. Conditions: A to B with inhibitor.
A short description of data set [6]: LM Clint (microsomal stability), human. It counts as in vitro ADME. Conditions: h (human) liver microsomes; read-out: LM Clint.
Text: as §1

Data set [7] can be described thus: LM Clint (microsomal stability), mouse. The settings on record: m (mouse) liver microsomes; read-out: LM Clint. It counts as in vitro ADME.
Text: as §1
For orientation: Microsomes from liver hold many membrane-bound enzymes, among them those of drug oxidation.

Data set [8] has as its system Mycobacterium tuberculosis strain (EH4.0, GFP-expressing; Test 2: H37Rv). Put plainly: MIC determination against M. tuberculosis, Test 1 (and/or Test 2). It counts as cell-based. Conditions: Mycobacterium tuberculosis, H37RV, 168 h, 7 days incubation, fluorescence.
The target of the next data set is hERG (Homo sapiens, UniProt Q12809). Put plainly: sync hERG. It counts as cell-based. In general terms: hERG is a cardiac potassium channel; its block is linked to QT prolongation.
A further data set is described as follows: AMES II. The settings on record: score.
Text: as §1

Data set [9] has as its system CYPs (all isoforms, or the isoforms not named for that compound). Put plainly: CYP cocktail inhibition, all / other isoforms. It counts as in vitro ADME. Conditions: read-out: CYPS IC50 (all / others).
Text: as §1

Molecules are shown by their SMILES. In brackets after ≈: the same amount, converted by molar mass. Where only a bound is given, the exact number is not on record here.

Sequence of hERG (Q12809 whole entry): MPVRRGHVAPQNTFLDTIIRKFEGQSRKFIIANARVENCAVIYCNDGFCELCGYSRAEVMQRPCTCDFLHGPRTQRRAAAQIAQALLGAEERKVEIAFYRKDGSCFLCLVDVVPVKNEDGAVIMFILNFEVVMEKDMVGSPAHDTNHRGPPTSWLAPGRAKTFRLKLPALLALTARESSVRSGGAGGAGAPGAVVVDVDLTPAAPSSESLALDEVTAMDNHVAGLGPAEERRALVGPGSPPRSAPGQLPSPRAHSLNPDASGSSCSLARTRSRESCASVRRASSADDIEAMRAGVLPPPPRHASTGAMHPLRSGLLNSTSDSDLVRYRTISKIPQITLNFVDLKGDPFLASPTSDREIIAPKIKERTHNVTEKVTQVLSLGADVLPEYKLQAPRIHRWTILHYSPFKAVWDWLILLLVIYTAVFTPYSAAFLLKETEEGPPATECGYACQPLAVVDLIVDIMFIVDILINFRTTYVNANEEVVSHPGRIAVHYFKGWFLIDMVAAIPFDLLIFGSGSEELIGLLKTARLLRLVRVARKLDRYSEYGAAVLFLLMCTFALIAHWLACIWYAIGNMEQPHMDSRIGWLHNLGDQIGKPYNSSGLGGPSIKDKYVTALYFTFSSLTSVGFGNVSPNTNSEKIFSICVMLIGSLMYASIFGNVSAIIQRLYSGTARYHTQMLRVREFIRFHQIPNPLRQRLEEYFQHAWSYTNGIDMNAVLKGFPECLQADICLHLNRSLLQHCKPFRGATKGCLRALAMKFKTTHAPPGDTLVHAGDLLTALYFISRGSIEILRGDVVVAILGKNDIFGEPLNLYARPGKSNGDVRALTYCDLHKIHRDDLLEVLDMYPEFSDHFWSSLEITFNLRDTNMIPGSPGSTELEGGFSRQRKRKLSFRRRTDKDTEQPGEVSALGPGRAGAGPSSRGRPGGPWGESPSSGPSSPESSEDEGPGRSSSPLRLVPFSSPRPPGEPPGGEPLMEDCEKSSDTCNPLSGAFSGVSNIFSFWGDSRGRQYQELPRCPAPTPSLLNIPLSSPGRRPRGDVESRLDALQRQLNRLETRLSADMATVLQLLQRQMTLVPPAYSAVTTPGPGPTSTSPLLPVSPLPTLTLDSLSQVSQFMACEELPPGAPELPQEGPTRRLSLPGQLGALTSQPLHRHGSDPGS

For orientation: half-life means the time in which the quantity being followed falls by half. Low values mean fast loss, high ones slow loss. What is called solubility is how much of the substance goes into solution per volume. A low value points to little dissolved substance. For orientation: solubility (thermodynamic) means the concentration in solution at equilibrium with solid. In data set [1], `CCc1nc2ncc(C)cn2c1C(=O)NCc1ccc(-c2cc3n(n2)CCN(S(=O)(=O)C(F)(F)F)C3)c(F)c1` [Compound 82] displayed a half-life of 16.5 min. In addition, the IC50 on 2C8 was 10.6 µM; in data set [8] it was 0.00282 µM; against hERG, 20.4 µM; in data set [9], > 19.5 µM. The “Glu/Gal: Gal” value in data set [2] (galactose medium) is > 25. Further, the “Glu/Gal: Glu” value in data set [2] (glucose medium) is listed as > 25. Also, the solubility in “physchem [3]” (fassif) worked out at 24.5 µM (≈ 13.9 µg/mL); in “physchem [3]” (fessif) it was 8.8 µM (≈ 4.98 µg/mL). Besides, the solubility (thermodynamic) in the data set “physchem [4]” (pH 2, simulated gastric fluid, thermodynamic from solid) was 12.3 µM (≈ 6.96 µg/mL); in the data set “physchem [4]” (pH 4, aqueous buffer), < 0.02 µM. In addition, the “chemical stability (% by LCMS)” value in [5] and in data set [5] (pH 1.6) was 100% in each case. In addition, the “MDCK AB+inh” value with MDCK amounted to 16.2. For the same compound, the microsomal CLint in data set [6] came out at 231 µL/min/mg; in data set [7], 28 µL/min/mg. Besides, the “AMES II” value in “AMES II” is listed as 1.
